Values after ≈ are worked out from the molar mass of the structure shown.
How the values were obtained:
M. tuberculosis H37Rv = experiment: Antimycobacterial activity (growth inhibition, MIC50) against Mtb; assay type: cell-based; settings: for MIC50: Mycobacterium tuberculosis, H37RV, read-out: Mtb, MIC50, [μM)
M. smegmatis mc2 155 = experiment: Antimycobacterial activity (growth inhibition, MIC50) against M. smegmatis; assay type: cell-based; settings: Mycolicibacterium smegmatis, MC2155, read-out: M. smeg., MIC50
[1] = test system: human embryonic stem cell (hESC) line (E3); experiment: hESC line (E3) genotoxicity and transcriptional program assays; assay type: cell-based; settings: racemate of (VI) 100 nM in combination with 300 nM of (II)
Text: Further, a human embryonic stem cell (hESC) line (E3) was used to examine both potential drug-induced genotoxicity and perturbations of the hESC transcriptional program that lead to hESC differentiation.

M. bovis BCG cells = experiment: microbe, parasite or virus in culture; assay type: cell-based; settings: Mycobacterium tuberculosis variant bovis BCG, read-out: IC50 for intracellular ATP synthesis inhibition
M. smegmatis mc^2 155 = experiment: Kill kinetics against M. smegmatis mc^2 155; assay type: cell-based; settings: M. smegmatis mc^2 155, liquid culture, up to 4 days; (II) at 20-fold MIC50 (FIG. 1 legend 10×MIC50), BDQ 200×MIC50
[2] = test system: M. bovis bacillus Calmette-Guérin (BCG); experiment: microbe, parasite or virus in culture; assay type: cell-based; settings: Mycobacterium tuberculosis variant bovis BCG, read-out: MIC50 in M. bovis BCG
[3] = Metabolic stability in mouse liver microsomes

SMILES: CCNc1cc(C)nc(Nc2ccc3[nH]c(-c4ccccc4)nc3c2)n1
- MIC50 (M. tuberculosis H37Rv): 8.8 µM (≈ 3.03 µg/mL)
- MIC50 (M. smegmatis mc2 155): 23.5 µM (≈ 8.09 µg/mL)

SMILES: CCSCCCOc1cccc(C(c2cc3cc(Br)ccc3nc2OC)C(O)(CCN(C)C)c2cc(OC)nc(OC)c2)c1OC (racemic) [Formula (VI)]
- alterations in the global transcriptional program [1]: nor induced major alterations
- genotoxic effects [1]: did not show substantial genotoxic effects
- IC50 (M. bovis BCG cells): 3.4 nM

SMILES: COc1nc2ccc(Br)cc2cc1[C@@H](c1ccccc1)[C@@](O)(CCN(C)C)c1cccc2ccccc12 [BDQ, Bedaquiline, reference compound]
- IC50 (M. bovis BCG cells): 11.5 nM
- bactericidal activity (kill kinetics) (M. smegmatis mc^2 155): delayed bactericidal activity

SMILES: CCNc1cc(C)nc(Nc2ccc3nc(-c4ccc(Cl)cc4)[nH]c3c2)n1 [Formula (II), N^2-(2-(4-Chlorophenyl)-1H-benzo[d]imidazol-5-yl)-N^4-ethyl-6-methylpyrimidine-2,4-diamine]
- MIC50 [2]: 6.8 µM
- fold improvement of MIC50 (M. tuberculosis H37Rv; Mtb H37Rv, compared with cpd6 of WO 2018/151681 A2): 10 fold
- MIC50 (M. tuberculosis H37Rv): 3 µM
- IC50 (M. bovis BCG cells): 3300 nM
- bactericidal activity (kill kinetics) (M. smegmatis mc^2 155): bactericidal
- CIint [3]: 46.8
- CLhep [3]: 60.5 mL/min/kg
- T1/2 [3]: 29.6 min
- MIC50 (M. smegmatis mc2 155): 9.9 µM

SMILES: CCNc1cc(C)nc(Nc2ccc3nc(-c4cccc(Cl)c4)[nH]c3c2)n1 [Formula (III), N^2-(2-(3-Chlorophenyl)-1H-benzo[d]imidazol-5-yl)-N^4-ethyl-6-methylpyrimidine-2,4-diamine]
- MIC50 (M. tuberculosis H37Rv): 5.2 µM
- MIC50 (M. smegmatis mc2 155): 14.6 µM

— patent US12528793B2 (priority 2019, dated 2026)
